Literature values, collected in patent US8541371B2, “Treatment of conditions related to cecal ligation shock” (The Regents of The University of California, priority 2009, dated 2013).

Tested on: shock
Settings: shock patients, approved treatment

drotrecogin alfa (activated) [XIGRIS]
survival benefit: minor but confirmed survival benefit
